In US10294202B2, “Pyrrolidinones as herbicides” (FMC Corporation, priority 2013, dated 2019):

Key:
pigweed, palmer = test: Test E preemergence herbicide test; format: in vivo, Amaranthus palmeri; parameters: key: 0 = no effect, 100 = complete control
Text: (§1) Seeds of plant species selected from corn (Zea mays), soybean (Glycine max), velvetleaf (Abutilon theophrasti), lambsquarters (Chenopodium album), wild poinsettia (Euphorbia heterophylla), pigweed, palmer (palmer pigweed, Amaranthus palmeri), waterhemp (common waterhemp, Amaranthus rudis), surinam grass (Brachiaria decumbens), crabgrass, large (large crabgrass, Digitaria sanguinalis), crabgrass, Brazil (Brazilian crabgrass, Digitaria horizontalis), panicum, fall (fall panicum, Panicum dichotomiflorum), foxtail, giant (giant foxtail, Setaria faberii), foxtail, green (green foxtail, Setaria viridis), goosegrass (Eleusine indica), johnsongrass (Sorghum halepense), ragweed (common ragweed, Ambrosia elatior), barnyardgrass (Echinochloa crus-galli), sandbur (southern sandbur, Cenchrus echinatus), arrowleaf […] rhombifolia), ryegrass, Italian (Italian ryegrass, Lolium multiflorum), dayflower, VA (Virginia dayflower, Commelina virginica), field bindweed (Convolvulus arvensis), morningglory (Ipomoea coccinea), nightshade (eastern black nightshade, Solanum ptycanthum), kochia (Kochia scoparia), nutsedge, yellow (yellow nutsedge, Cyperus esculentus), cocklebur (common cocklebur, Xanthium strumarium), smartweed (ladysthumb smartweed, Polygonum Persicaria) and beggarticks (hairy beggarticks, Bidens pilosa), were planted into a silt loam soil and treated preemergence with test chemicals formulated in a non-phytotoxic solvent mixture which included a surfactant. Treated plants and controls were maintained in a greenhouse for 21 days, after which time all species were compared to controls and visually evaluated. Plant response ratings, summarized in Table E, are based on a scale of 0 to 100 where 0 is no effect and 100 is complete control. A dash (-) response means no test result.

Rice, W.S. Ind = test: Test F flood (paddy) test; format: in vivo, Oryza sativa Indica; settings: 21 d, scale 0-100
Text: (§2) Three plastic pots (ca. 16-cm diameter) per rate were partially filled with sterilized Tama silt loam soil comprising a 35:50:15 ratio of sand, silt and clay and 2.6% organic matter. Separate plantings for each of the three pots were as follows. Seeds from the U.S. of monochoria (Monochoria vaginalis), sedge, umbrella (small-flower umbrella sedge, Cyperus difformis), bulrush, […] bulrush, Scirpus juncoides), and […] (purple […] coccinea), were planted into one 16-cm pot for each rate. Seeds from the U.S. of flatsedge, rice (rice flatsedge, Cyperus iria), sprangletop, Brdd. (bearded sprangletop, Leptochloa fascicularis), one stand of 9 or 10 water seeded rice seedlings (Rice, W.S. Jap, Oryza sativa cv. 'Japonica-[…]' or Rice, W.S. Ind, 'Indica'), and two stands of 3 or 4 seedlings of rice, transplanted (transplanted rice, Oryza sativa cv. 'Japonica-[…]') were planted into one 16-cm pot for each rate. Seeds from the U.S. of barnyardgrass (Echinochloa crus-galli), […] (common […], Alisma plantago-aquatica), and watergrass, late (late watergrass, Echinochloa oryzicola) were planted into one 16-cm pot for each rate. Plantings were sequential so that crop and weed species were at the 2.0 to 2.5-leaf stage at time of treatment. Potted plants were grown in a greenhouse with day/night temperature settings of 30/27° C., and supplemental balanced lighting was provided to maintain a 16-h photoperiod. Test pots were maintained in the greenhouse until test completion. At time of treatment, test pots were flooded to 3 cm above the soil surface, treated by application of test compounds directly to the paddy water, and then maintained at that water depth for the duration of the test. Effects of treatments on rice and weeds were visually evaluated by comparison to untreated controls after 21 d. Plant response ratings, summarized in Table F, are based on a scale of 0 to 100 where 0 is no effect and 100 is complete control. A dash (-) response means no test result.

barley (winter barley) = test: Test C postemergence herbicide test; format: in vivo, Hordeum vulgare
Text: (§3) At the same time, plants selected from these crop and weed species and also barley (winter barley, Hordeum vulgare), […]), chickweed (common chickweed, Stellaria media), deadnettle (henbit deadnettle, Lamium amplexicaule), and canarygrass (littleseed canarygrass, Phalaris minor) were planted in pots containing Redi-Earth® planting medium (Scotts Company, 14111 Scottslawn Road, Marysville, Ohio 43041) comprising spaghnum peat moss, vermiculite, wetting agent and starter nutrients and treated with postemergence applications of test chemicals formulated in the same manner. Plants ranged in height from 2 to 18 cm (1- to 4-leaf stage) for postemergence treatments. Treated plants and controls were maintained in a greenhouse for 13 to 15 days, after which time all species were compared to controls and visually evaluated. Plant response ratings, summarized in Table C, are based on a scale of 0 to 100 where 0 is no effect and 100 is complete control. A dash (-) response means no test result.

windgrass = test: Test C postemergence herbicide test; format: in vivo, Apera spica-venti
Text: as §3

canarygrass = test: Test C postemergence herbicide test; format: in vivo, Phalaris minor
Text: as §3

cocklebur = test: Test E preemergence herbicide test; format: in vivo, Xanthium strumarium; parameters: key: 0 = no effect, 100 = complete control
Text: as §1

sedge, umbrella = test: Test F flood (paddy) test; format: in vivo, Cyperus difformis; settings: 21 d, scale 0-100
Text: as §2

redstem = test: Test F flood (paddy) test; format: in vivo, Ammannia coccinea; settings: 21 d, scale 0-100
Text: as §2

flatsedge, rice = test: Test F flood (paddy) test; format: in vivo, Cyperus iria; settings: 21 d, scale 0-100
Text: as §2

waterplantain = test: Test F flood (paddy) test; format: in vivo, Alisma plantago-aquatica; settings: 21 d, scale 0-100
Text: as §2

deadnettle = test: Test C postemergence herbicide test; format: in vivo, Lamium amplexicaule
Text: as §3

bulrush, hardstem = test: Test F flood (paddy) test; format: in vivo, Scirpus juncoides; settings: 21 d, scale 0-100
Text: as §2, with “Potted plants were grown in a greenhouse with day/night temperature settings of 30/27° C., and supplemental balanced lighting was provided to maintain a 16-h photoperiod. Test pots were maintained in the greenhouse until test completion. At time of treatment, test pots were flooded to 3 cm above the soil surface, treated by application of test compounds directly to the paddy water, and then maintained at that water depth for the duration of the test.” left out, “Plant response ratings, summarized in Table F, are based on a scale of 0 to 100 where 0 is no effect and 100 is complete control. A dash (-) response means no test result.” left out

[1] = 31 g ai/ha, scale 0 (no effect) to 100 (complete control)
[2] = 62 g ai/ha, scale 0 to 100 (0 no effect, 100 complete control)
[3] = 125 g ai/ha, scale 0 to 100 (0 no effect, 100 complete control)
[4] = 250 g ai/ha, scale 0 to 100 (0 no effect, 100 complete control)

O=C1NCC(c2ccc(C(F)(F)F)cc2)C1C(=O)Nc1ccc(F)c(F)c1F (centres unmarked) [Compound 232]
Plant response rating, Pigweed, Palmer (pigweed, palmer; 31 g ai/ha): 0 | Plant response rating, Pigweed, Palmer (pigweed, palmer; 62 g ai/ha): 0 | Plant response rating, Pigweed, Palmer (pigweed, palmer; 125 g ai/ha): 80 | Plant response rating, Pigweed, Palmer (pigweed, palmer; 250 g ai/ha): 65

CN1CC(c2ccc(F)cc2)C(C(=O)Nc2cccc(F)c2F)C1=O (centres unmarked) [Compound 271]
Plant response rating, Rice, W.S. Ind (Rice, W.S. Ind; 64 g ai/ha): 0 | Plant response rating, Rice, W.S. Ind (Rice, W.S. Ind; 125 g ai/ha): 15 | Plant response rating, Rice, W.S. Ind (Rice, W.S. Ind; 250 g ai/ha): 30 | Plant response rating, Rice, W.S. Ind (Rice, W.S. Ind; 500 g ai/ha): 60

O=C1NCC(c2ccccc2)C1C(=O)Nc1ccccc1F (racemic) [Compound 81]
Plant response rating, Barley (barley (winter barley); [1]): 0 | Plant response rating, Barley (barley (winter barley); [2]): 0 | Plant response rating, Barley (barley (winter barley); [3]): 0 | Plant response rating, Barley (barley (winter barley); [4]): 0 | Plant response rating, Windgrass (windgrass; [1]): 0 | Plant response rating, Windgrass (windgrass; [2]): 0 | Plant response rating, Windgrass (windgrass; [3]): 20 | Plant response rating, Windgrass (windgrass; [4]): 20 | Plant response rating, Canarygrass (canarygrass; [1]): 0 | Plant response rating, Canarygrass (canarygrass; [2]): 0 | Plant response rating, Canarygrass (canarygrass; [3]): 0 | Plant response rating, Canarygrass (canarygrass; [4]): 0

O=C1NCC(c2ccc(F)cc2)C1C(=O)Nc1ccccc1F (racemic) [Compound 16]
Plant response rating, Pigweed, Palmer (pigweed, palmer; 16 g ai/ha): 0 | Plant response rating, Pigweed, Palmer (pigweed, palmer; 31 g ai/ha): 0 | Plant response rating, Pigweed, Palmer (pigweed, palmer; 62 g ai/ha): 0 | Plant response rating, Pigweed, Palmer (pigweed, palmer; 125 g ai/ha): 0 | Plant response rating, Pigweed, Palmer (pigweed, palmer; 250 g ai/ha): 0 | Plant response rating, Cocklebur (cocklebur; 16 g ai/ha): 0 | Plant response rating, Cocklebur (cocklebur; 31 g ai/ha): 0 | Plant response rating, Cocklebur (cocklebur; 62 g ai/ha): 0 | Plant response rating, Cocklebur (cocklebur; 125 g ai/ha): 0 | Plant response rating, Cocklebur (cocklebur; 250 g ai/ha): 0

O=C1NCC(c2ccc(C(F)(F)F)c(F)c2)C1C(=O)Nc1cccc(F)c1F (racemic) [Compound 247]
Plant response rating, Sedge, Umbrella (sedge, umbrella; 125 g ai/ha): 0 | Plant response rating, Sedge, Umbrella (sedge, umbrella; 250 g ai/ha): 0 | Plant response rating, Sedge, Umbrella (sedge, umbrella; 500 g ai/ha): 0 | Plant response rating, Sedge, Umbrella (sedge, umbrella; 1000 g ai/ha): 0 | Plant response rating, Sedge, Umbrella (sedge, umbrella; 2000 g ai/ha): 0 | Plant response rating, Redstem (redstem; 125 g ai/ha): 0 | Plant response rating, Redstem (redstem; 250 g ai/ha): 0 | Plant response rating, Redstem (redstem; 500 g ai/ha): 0 | Plant response rating, Redstem (redstem; 1000 g ai/ha): 50 | Plant response rating, Redstem (redstem; 2000 g ai/ha): 55 | Plant response rating, Flatsedge, Rice (flatsedge, rice; 125 g ai/ha): 0 | Plant response rating, Flatsedge, Rice (flatsedge, rice; 250 g ai/ha): 0 | Plant response rating, Flatsedge, Rice (flatsedge, rice; 500 g ai/ha): 0 | Plant response rating, Flatsedge, Rice (flatsedge, rice; 1000 g ai/ha): 0 | Plant response rating, Flatsedge, Rice (flatsedge, rice; 2000 g ai/ha): 35 | Plant response rating, Waterplantain (waterplantain; 125 g ai/ha): 80 | Plant response rating, Waterplantain (waterplantain; 250 g ai/ha): 85 | Plant response rating, Waterplantain (waterplantain; 500 g ai/ha): 90 | Plant response rating, Waterplantain (waterplantain; 1000 g ai/ha): 90 | Plant response rating, Waterplantain (waterplantain; 2000 g ai/ha): 90

O=C1NCC(c2cccc(C(F)(F)F)c2)C1C(=O)Nc1ccc(F)cc1F (racemic) [Compound 207]
Plant response rating, Rice, W.S. Ind (Rice, W.S. Ind; 125 g ai/ha): 0 | Plant response rating, Rice, W.S. Ind (Rice, W.S. Ind; 250 g ai/ha): 0 | Plant response rating, Rice, W.S. Ind (Rice, W.S. Ind; 500 g ai/ha): 10

O=C1NCC(c2cc(F)c(F)c(F)c2)C1C(=O)Nc1ccccc1F (racemic) [Compound 34]
Plant response rating, Barley (barley (winter barley); [1]): 0 | Plant response rating, Barley (barley (winter barley); [2]): 0 | Plant response rating, Barley (barley (winter barley); [3]): 0 | Plant response rating, Barley (barley (winter barley); [4]): 0 | Plant response rating, Windgrass (windgrass; [1]): 0 | Plant response rating, Windgrass (windgrass; [2]): 0 | Plant response rating, Windgrass (windgrass; [3]): 0 | Plant response rating, Windgrass (windgrass; [4]): 5 | Plant response rating, Deadnettle (deadnettle; [1]): 0 | Plant response rating, Deadnettle (deadnettle; [2]): 0 | Plant response rating, Deadnettle (deadnettle; [3]): 0 | Plant response rating, Deadnettle (deadnettle; [4]): 0 | Plant response rating, Canarygrass (canarygrass; [1]): 0 | Plant response rating, Canarygrass (canarygrass; [2]): 0 | Plant response rating, Canarygrass (canarygrass; [3]): 0 | Plant response rating, Canarygrass (canarygrass; [4]): 0

O=C1NCC(c2cccc(Br)c2)C1C(=O)Nc1ccccc1F (centres unmarked) [Compound 66]
Plant response rating, Cocklebur (cocklebur; 16 g ai/ha): 0 | Plant response rating, Cocklebur (cocklebur; 31 g ai/ha): 0 | Plant response rating, Cocklebur (cocklebur; 62 g ai/ha): 0

O=C1NCC(c2cccc(C(F)(F)F)c2)C1C(=O)Nc1ccccc1F (racemic) [Compound 3]
Plant response rating, Sedge, Umbrella (sedge, umbrella; 250 g ai/ha): 0 | Plant response rating, Sedge, Umbrella (sedge, umbrella; 500 g ai/ha): 0 | Plant response rating, Bulrush, Hardstem (bulrush, hardstem; 250 g ai/ha): 0 | Plant response rating, Bulrush, Hardstem (bulrush, hardstem; 500 g ai/ha): 30 | Plant response rating, Redstem (redstem; 250 g ai/ha): 0 | Plant response rating, Redstem (redstem; 500 g ai/ha): 20 | Plant response rating, Flatsedge, Rice (flatsedge, rice; 250 g ai/ha): 0 | Plant response rating, Flatsedge, Rice (flatsedge, rice; 500 g ai/ha): 20
